We go through 6 molecules from ChEMBL document CHEMBL4184086, “Sinopestalotiollides A-D, cytotoxic diphenyl ether derivatives from plant endophytic fungus Pestalotiopsis palmarum” (Bioorg Med Chem Lett, 2018).

Each structure is given as a SMILES string.

Holding throughout (assay type): functional, cell-based
In one assay the test system is HeLa. As to the kind of experiment: Cytotoxicity against human HeLa cells by WST-8 assay. (Tetrazolium assays rely on reduction of a dye to a coloured formazan, in cell work by metabolically active cells.)
In the next assay the test system is HCT-116. As to the kind of experiment: Cytotoxicity against human HCT116 cells by WST-8 assay.
The test system of another assay is A549. As to the kind of experiment: Cytotoxicity against human A549 cells by WST-8 assay.

As for `COc1c(/C=C/C(C)(CO)OC)ccc2c1C(=O)OCc1cc(C)cc(O)c1O2` (configuration not stated), the IC50 amounted to 1.19 µM in the assay with HeLa, 2.66 µM in the assay with HCT-116 and 2.14 µM in the assay on A549.
Take `COc1c(C(CO)C(C)C)ccc2c1C(=O)OCc1cc(C)cc(O)c1O2` (configuration not stated): the half-inhibitory concentration (IC50) in the assay on HeLa amounted to 14.7 µM; in the assay on HCT-116, 18.5 µM; in the assay with A549, 36.1 µM.
As to `C=C(C)C(CO)c1ccc2c(c1OC)C(=O)OCc1cc(C)cc(O)c1O2` (configuration not stated), the IC50 came to 18.9 µM in the assay with HeLa, 15.7 µM in the assay on HCT-116 and 31.3 µM in the assay on A549.
On to `C=C(C)C(O)Cc1ccc2c(c1OC)C(=O)OCc1cc(C)cc(O)c1O2` (configuration not stated), for which the IC50 with HeLa turned out to be 12.8 µM; with HCT-116, 22.7 µM; with A549, 44.9 µM.
As to `COC1=CC(=O)OC(CO)C1` (configuration not stated), the results for the IC50 in the assay on HeLa, with HCT-116 and with A549 were 15.6 µM, 24.4 µM and 47.8 µM, respectively.
As to `COc1cccc2c1C(=O)c1c(O)c3c(c(O)c1C2=O)C[C@@](O)(C(=O)CO)C[C@@H]3O[C@H]1C[C@H](N)[C@H](O)[C@H](C)O1` [DOXORUBICIN], the values for the IC50 in the assay on HeLa and in the assay with HCT-116 were 8.96 µM and 2.38 µM, respectively.

As a reminder, the IC50 is the concentration at which inhibition is half-maximal. High values mean weaker potency in that assay, low ones greater potency in that assay.
